Measured values published in patent publication US20240343722A1 (VIFOR (INTERNATIONAL) AG, priority 2021, published 2024).

What follows are molecules tested against T1, ferroportin (Fpn) (Mus musculus, UniProt Q9JHI9) (assay: Hepcidin Internalization Assay (J774)). Conditions: Average (AVE) IC50 of multiple measurements; inhibition of TMR-hepcidin (25 nM) internalization into J774 cells.
T1 construct: endogenous in cells; host or cells: J774 mouse macrophage cell line, induced with Fe(III)NTA
T1 sequence (Q9JHI9 1-570): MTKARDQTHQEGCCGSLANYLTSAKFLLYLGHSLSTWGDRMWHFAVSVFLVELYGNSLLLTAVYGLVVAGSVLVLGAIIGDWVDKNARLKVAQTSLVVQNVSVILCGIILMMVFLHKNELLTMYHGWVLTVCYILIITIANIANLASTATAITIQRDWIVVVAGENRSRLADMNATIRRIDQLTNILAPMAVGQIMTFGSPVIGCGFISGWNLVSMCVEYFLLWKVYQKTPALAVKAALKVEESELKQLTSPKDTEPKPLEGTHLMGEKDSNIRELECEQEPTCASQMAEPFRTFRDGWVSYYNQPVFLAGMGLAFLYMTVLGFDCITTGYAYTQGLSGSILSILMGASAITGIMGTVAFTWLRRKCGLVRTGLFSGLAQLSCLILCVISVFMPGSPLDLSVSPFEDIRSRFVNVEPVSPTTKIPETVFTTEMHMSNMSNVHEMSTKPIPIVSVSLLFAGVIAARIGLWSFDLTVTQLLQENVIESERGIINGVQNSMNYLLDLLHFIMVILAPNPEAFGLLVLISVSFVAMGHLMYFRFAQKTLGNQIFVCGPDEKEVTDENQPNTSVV
Format: cell-based
Summary of the method: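 Mouse J774 cells; Fpn inhibition read as reduced internalization of TMR-labelled hepcidin, imaged by fluorescence microscopy with Hoechst 33342 co-stain after fixation. IC50 from Sum(Mean) TMR signal fitted to three- or four-parameter log(inhibitor) vs. response, whichever fit better.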

Point of comparison: `COc1cccc(CCn2c(CCNCCc3nc(C(=O)NCc4ncccc4F)co3)nc3ccccc32)c1` [Example 45, N-((3-fluoropyridin-2-yl)methyl)-2-(2-((2-(1-(3-methoxyphenethyl)-1 H-benzo[d]imidazol-2-yl)ethyl)amino)ethyl)oxazole-4-carboxamide], IC50 0.8 nM. Against it:
- Cc1noc(C)c1CCn1c(CCNCCc2nc(C(=O)NCc3ncccc3F)co2)nc2ccccc21 [Example 30, 2-(2-((2-(1-(2-(3,5-dimethylisoxazol-4-yl)ethyl)-1 H-benzo[d]imidazol-2-yl)ethyl)amino)ethyl)-N-((3-fluoropyridin-2-yl)methyl)oxazole-4-carboxamide] — 1.6-fold higher, 1.3 nM
- CCCCn1c(C2(CNCCc3nc(C(=O)NCc4ncccc4F)co3)CCCCC2)nc2ccccc21 [Example 61, 2-(2-(((1-(1-butyl-1H-benzo[d]imidazol-2-yl)cyclohexyl)methyl)amino)ethyl)-N-((3-fluoropyridin-2-yl)methyl)oxazole-4-carboxamide] — 1800-fold higher, 1430 nM
- O=C(NCc1ncccc1F)c1coc(CCNCCc2nc3cc(C#Cc4ccccn4)ccc3n2CC2CC2)n1 [Example 89, 2-(2-((2-(1-(cyclopropylmethyl)-5-(pyridin-2-ylethynyl)-1 H-benzo[d]imidazol-2-yl)ethyl)amino)ethyl)-N-((3-fluoropyridin-2-yl)methyl)oxazole-4-carboxamide] — 5-fold higher, 4 nM
- COc1cccc(-n2c(CCNCCc3nc(C(=O)NCc4ncccc4F)co3)nc3cc4c(cc32)OCO4)c1 [Example 75, N-((3-fluoropyridin-2-yl)methyl)-2-(2-((2-(5-(3-methoxyphenyl)-5H-[1,3]dioxolo[4′,5′:4,5]benzo[1,2-d]imidazol-6-yl)ethyl)amino)ethyl)oxazole-4-carboxamide] — 1.6-fold higher, 1.3 nM
- CNC(=O)Cn1c(CCNCCc2nc(C(=O)NCc3ncccc3F)co2)nc2ccccc21 [Example 15, N-((3-fluoropyridin-2-yl)methyl)-2-(2-((2-(1-(2-(methylamino)-2-oxoethyl)-1 H-benzo[d]imidazol-2-yl)ethyl)amino)ethyl)oxazole-4-carboxamide] — 40-fold higher, 32 nM
- CNC(=O)CCn1c(CCNCCc2nc(C(=O)NCc3ncccc3F)co2)nc2ccccc21 [Example 25, N-((3-fluoropyridin-2-yl)methyl)-2-(2-((2-(1-(3-(methylamino)-3-oxopropyl)-1 H-benzo[d]imidazol-2-yl)ethyl)amino)ethyl)oxazole-4-carboxamide] — 8.8-fold higher, 7 nM
- O=C(NCc1ncccc1F)c1coc(CCNCCc2nc3cc(C#Cc4ccccn4)ccc3n2-c2ccccc2)n1 [Example 85, N-((3-fluoropyridin-2-yl)methyl)-2-(2-((2-(1-phenyl-5-(pyridin-2-ylethynyl)-1H-benzo[d]imidazol-2-yl)ethyl)amino)ethyl)oxazole-4-carboxamide] — 9.8-fold higher, 7.8 nM
- O=C(NCc1ncccc1F)c1coc(CCNCCc2nc3cc4c(cc3n2-c2ccccc2)OCCO4)n1 [Example 83, N-((3-fluoropyridin-2-yl)methyl)-2-(2-((2-(1-phenyl-6,7-dihydro-1 H-[1,4]dioxino[2′,3′:4,5]benzo[1,2-d]imidazol-2-yl)ethyl)amino)ethyl)oxazole-4-carboxamide] — 2.4-fold higher, 1.9 nM
- COCCn1c(CCNCCc2nc(C(=O)NCc3ncccc3F)co2)nc2cc(C#Cc3ccccn3)ccc21 [Example 86, N-((3-fluoropyridin-2-yl)methyl)-2-(2-((2-(1-(2-methoxyethyl)-5-(pyridin-2-ylethynyl)-1 H-benzo[d]imidazol-2-yl)ethyl)amino)ethyl)oxazole-4-carboxamide] — 5.1-fold higher, 4.1 nM
- O=C(NCc1ncccc1F)c1coc(CCNCCc2nc3ccccc3n2CCc2nc3ccccc3[nH]2)n1 [Example 44, 2-(2-((2-(1-(2-(1H-benzo[d]imidazol-2-yl)ethyl)-1 H-benzo[d]imidazol-2-yl)ethyl)amino)ethyl)-N-((3-fluoropyridin-2-yl)methyl)oxazole-4-carboxamide] — within 1.5-fold, 1 nM
- COc1ccc(-n2c(CCNCCc3nc(C(=O)NCc4ncccc4F)co3)nc3cc(OC)c(OC)cc32)cc1OC [Example 90, 2-(2-((2-(1-(3,4-dimethoxyphenyl)-5,6-dimethoxy-1 H-benzo[d]imidazol-2-yl)ethyl)amino)ethyl)-N-((3-fluoropyridin-2-yl)methyl)oxazole-4-carboxamide] — 49-fold higher, 39 nM
- CN(C)CCn1c(C2CN(CCc3nc(C(=O)NCc4ncccc4F)co3)C2)nc2ccccc21 [Example 97, 2-(2-(3-(1-(2-(dimethylamino)ethyl)-1H-benzo[d]imidazol-2-yl)azetidin-1-yl)ethyl)-N-((3-fluoropyridin-2-yl)methyl)oxazole-4-carboxamide] — 110-fold higher, 89 nM
- COCCn1c(CCNCCc2nc(C(=O)NCc3ncccc3F)co2)nc2cc3c(cc21)OCO3 [Example 69, N-((3-fluoropyridin-2-yl)methyl)-2-(2-((2-(5-(2-methoxyethyl)-5H-[1,3]dioxolo[4′,5′:4,5]benzo[1,2-d]imidazol-6-yl)ethyl)amino)ethyl)oxazole-4-carboxamide] — 3.8-fold higher, 3 nM
- O=C(NCc1ncccc1F)c1coc(CCNCCc2nc3cc4c(cc3n2CCc2ncco2)OCCO4)n1 [Example 94, N-((3-fluoropyridin-2-yl)methyl)-2-(2-((2-(1-(2-(oxazol-2-yl)ethyl)-6,7-dihydro-1 H-[1,4]dioxino[2′,3′:4,5]benzo[1,2-d]imidazol-2-yl)ethyl)amino)ethyl)oxazole-4-carboxamide] — 460-fold higher, 365 nM
- O=C(NCc1ncccc1F)c1coc(CCNCCc2nc3ccccc3n2CCc2ccccc2)n1 [Example 23, N-((3-fluoropyridin-2-yl)methyl)-2-(2-((2-(1-phenethyl-1 H-benzo[d]imidazol-2-yl)ethyl)amino)ethyl)oxazole-4-carboxamide] — 2.4-fold higher, 1.9 nM

What follows are molecules tested against T2, ferroportin (Fpn) (Homo sapiens, UniProt Q9NP59) (assay: Inhibition of Ferroportin mediated Iron Export Activity in an Iron Response Assay (BLA reporter, HEK-293 cell line #354)). Conditions: HEK-293 cell line #354, BLA reporter blue/green fluorescence ratio, n=37; read-out: EC50 of hepcidin in the iron response assay.
T2 construct: expressed in transfected cells; host or cells: HEK-293 cell line #354 (derivative of HEK-293 Tet-ON Advanced)
T2 sequence (Q9NP59 1-571): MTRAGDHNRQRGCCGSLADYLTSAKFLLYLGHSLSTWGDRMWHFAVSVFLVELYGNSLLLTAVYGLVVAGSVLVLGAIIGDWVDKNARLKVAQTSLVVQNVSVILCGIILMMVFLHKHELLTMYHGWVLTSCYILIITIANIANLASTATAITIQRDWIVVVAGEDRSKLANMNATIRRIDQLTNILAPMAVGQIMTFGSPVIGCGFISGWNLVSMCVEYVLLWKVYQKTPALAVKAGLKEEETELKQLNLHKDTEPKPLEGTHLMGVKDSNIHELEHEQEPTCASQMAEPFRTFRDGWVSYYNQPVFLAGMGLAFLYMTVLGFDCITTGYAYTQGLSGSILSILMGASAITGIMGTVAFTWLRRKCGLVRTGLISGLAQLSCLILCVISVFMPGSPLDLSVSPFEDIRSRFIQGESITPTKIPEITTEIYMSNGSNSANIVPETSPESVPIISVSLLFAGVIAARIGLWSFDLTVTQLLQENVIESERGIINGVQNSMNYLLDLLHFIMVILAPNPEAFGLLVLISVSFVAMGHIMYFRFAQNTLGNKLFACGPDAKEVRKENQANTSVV
Format: cell-based
Source text: Intracellular iron levels are indirectly measured in this assay by monitoring the activity of a beta-lactamase (BLA) reporter gene fused to the human ferritin promoter and the associated iron regulatory element (IRE) contained within the 5′ untranslated region of the ferritin mRNA. Expression of ferroportin (Fpn) in such a cell line leads to iron efflux and lower iron levels as reflected by lower activity of the reporter gene. On the other hand, inhibition of Fpn-mediated iron efflux results in elevated cellular iron levels which is detected as increased reporter gene activity.

In the case of `CC[C@H](C)[C@@H]1NC(=O)[C@@H](NC(=O)[C@@H](NC(=O)[C@@H]2CCCN2C(=O)[C@H](Cc2ccccc2)NC(=O)[C@H](Cc2c[nH]cn2)NC(=O)[C@@H](NC(=O)[C@@H](N)CC(=O)O)[C@@H](C)O)[C@@H](C)CC)CSSC[C@@H](C(=O)N[C@@H](CCCCN)C(=O)N[C@H](C(=O)O)[C@@H](C)O)NC(=O)[C@@H]2CSSC[C@@H]3NC(=O)[C@@H]4CSSC[C@H](NC(=O)[C@H](Cc5ccccc5)NC1=O)C(=O)N[C@@H](CSSC[C@H](NC(=O)[C@H](CCCCN)NC(=O)[C@H](CO)NC(=O)[C@H](CCCNC(=N)N)NC(=O)[C@H](Cc1c[nH]cn1)NC3=O)C(=O)NCC(=O)N[C@@H](CCSC)C(=O)N2)C(=O)NCC(=O)N4` [hepcidin], the EC50 is reported as about 96 nM.
